Ends that are not written are not given here.

The text below walks through data of patent US5039792A, “Allatostatins which inhibit insect juvenile hormone biosynthesis” (Oregon State University, priority 1989, dated 1991).

The subject of this assay is juvenile hormone III synthesis by corpora allata. Briefly: in vitro radiochemical assay for inhibition of juvenile hormone III synthesis and release by corpora allata. It counts as cell-based, Diploptera punctata. The note with it: for IC50: inhibition of juvenile hormone synthesis and release, two hour in vitro radiochemical assay, corpora allata from ten day old pregnant females, read-out: Bioactivity as I.C.50 (Day 10 Donors). The method, then:
This assay for inhibition of JH synthesis is conducted as described by G. E. Pratt and J. R. Finney, in Crop Protection Agents: their biological evaluation, N. R. McFarlane, Ed. (Academic Press, New York, 1976)) except it is modified by the use of rapid partition instead of thin layer chromatography to isolate the newly synthesized JH and also modified by a reduction of incubation time to two hours.
Biological activities are determined for all RP18.cndot.HPLC fractions. […] Juvenile hormone III is synthesized de novo from acetyl-CoA through the classical isoprenoid pathway to farnesyl pyrophosphate (D. A. Schooley and F. C. Baker, in Comprehensive Insect Physiology, Biochemistry and Pharmacology, G. A. Kerkut and L. I. Gilbert, Eds. (Pergamon, Oxford, 1985) Vol. 7, pp. 363-389) and the enzymatic conversion of […] to JH can be stimulated in vitro by exogenous 2E,6E […] (Aldrich, Milwaukee, Wis.) which presumably alleviates a limitation in the biosynthetic flux (R. Feyereisen, J. Koener, S. S. Tobe, in Juvenile Hormone Biochemistry, G. E. Pratt and G. T. Brooks, Eds. (Elsevier, Amsterdam, 1981), pp. 81-92). […] The target of this allatostatin is therefore located early in the biosynthetic pathway. Juvenile hormone synthesis is determined at the end of two hours in these assays and bioactivity is measured as the ability of the peptide to inhibit biosynthesis of the JHIII. The peptide yields as determined from sequence analysis correspond to approximately 35 fmole/brain-complex. This is approximately one third the yield of the smaller known allatostatins (see G. E. Pratt et al. Biochem. & Biophys. Res. Commun. 163:1243 (1989) and A. P. Woodhead et al. Prod. Natl. Acad. Sci. 86:5997 (1989).
The inhibition of JH III synthesis and release by corpora allata (CA) from ten day old pregnant females is measured by an in vitro radiochemical assay. The three hour assay for inhibitors of JH synthesis (G. E. Pratt and J. R. Finney, in Crop Protection Agents: their biological evaluation, N. R. McFarlane, Ed. (Academic Press, New York, 1976) pp. 113-132) is modified by the use of rapid partition instead of thin layer chromatography to isolate the newly synthesized JH III (R. Feyereisen and S. S. Tobe, Anal. Biochem. 111: 372 (1981)) and modified by a reduction of incubation time to two hours. In each assay, run in seven replicates, one pair of CA was incubated with 50 μM (methyl-^3 H) methionine and putative inhibitor in 0.1 mL of TC199 containing 2% Ficoll, 0.1% bovine serum albumin and 0.03% bacitracin. The test glands show maximum sensitivity to the allatostatic action of brain extracts. R. Feyereisen and D. E. Farnsworth, Insect Biochem. 17,939 (1987); S. M. Rankin and B. Stay, J. Insec. Physiol. 33, 551 (1987).

Turning to “AYSYVSEYKRLPVYNFGL-NH2 [AYSYVSEYKRLPVYNFGL-NH2]”, the IC50 was found to be 0.3 nM. In addition, the “inhibition of JH III biosynthesis in dose-response assays in the presence of farnesol” value (in the presence of 200 μM farnesol, JH synthesis determined at the end of two hours) is listed as “totally ineffective”. For the same substance, the “biological activity in the in vitro assay (inhibition of JH synthesis)” value (in vitro radiochemical assay, corpora allata) was “biologically active”. “Ac-AYSYVSEYKRLPVYNFGL-NH2 [acetyl-AYSYVSEYKRLPVYNFGL-NH2]”: the IC50 was determined as 1.5 nM.

As for Ac-RLPVYNFGL-NH2 [acetyl-RLPVYNFGL-NH2], the IC50 was found to be 30 nM. With LPVYNFGL-NH2 [LPVYNFGL-NH2], the IC50 turned out to be 50 nM. For the substance LRVYNFGL-NH2 [LRVYNFGL-NH2], the IC50 came out at 118 nM.

As to RLPVYNFGL-NH2 [RLPVYNFGL-NH2], the IC50 was 270 nM.
